Experimental findings from publication PMC8949771, “Gold(I)-Mediated Rapid Cyclization of Propargylated Peptides via Imine Formation” (Journal of the American Chemical Society, 2022) are described below.

Structures are written as SMILES.

A short description of series [1]: Au(I)-mediated imine macrocyclisation (JohnPhosAu(MeCN)SbF6 2 equiv, Et4NBr 16 equiv) then in situ NaBH4 reduction to cyclic amine, HPLC isolation. The settings on record: the molecule shown is the open-chain precursor; 24-membered ring; DMF; 8.0 mM; 37.0 °C; 1.0 h; 2 steps.
The next series concerns HeLa cells. Kind of series: Live-cell uptake, confocal microscopy. It counts as cell-based. The settings on record: 2.5 μM, 1 h incubation, FITC signal, repeated in duplicates. As for the experimental part: With both peptides in hand (5 and 6, Figure 7A), we investigated the binding efficiency using our fluorescence-based competitive assay.[38] […] Encouraged by these in vitro results, we explored the cellular uptake and apoptosis efficacy of the new cyclic peptide in living cells. To investigate the live cell delivery efficacy of the FITC-labeled peptides (9 and 10), both cyclic peptides were incubated for 1h with HeLa cells at different concentrations of 2.5, 5, 7, and 10 μM. […] After assessing the cellular uptake, we probed the controlled cell death or apoptosis in HeLa cells using only 2.5 μM peptides (3 and 5) and the known proteasome inhibitor MG-132 as a positive control. […] (Figure 7E).
To investigate the cellular delivery efficiency of the new cyclic peptide HeLa (CCL-2™) cells were seeded on ibidi poly-L-lysine (PLL) 8 well µ-slides in […] and were allowed to reach […]
~90% confluency over 24h. Cells were washed three times with warm PBS and serum-free DMEM (high glucose) followed by incubation for 1h with warm PBS/serum-free medium containing containing 2.5, 5, and 10 µM of fluorescently labeled cyclic peptides (9 and 10). Cells were then washed three times with warm PBS followed by adding 0.1 mg/ml heparin sulfate in PBS and incubating for 5min. […]

Regarding `C#CCN(CC(N)=O)C(=O)CNC(=O)[C@H](C)NC(=O)[C@H](CO)NC(=O)[C@H](Cc1ccc(O)cc1)NC(=O)[C@H](CC(C)C)NC(=O)CNC(=O)[C@@H](N)Cc1ccccc1` [H-Phe-Gly-Leu-Tyr-Ser-Ala-Gly-(N-propargyl)Gly-NH2], the ring closure, yield over several steps in series [1] amounted to 60%.
On to `C#CCN(CC(N)=O)C(=O)CNC(=O)[C@H](C)NC(=O)[C@H](CCCNC(=N)N)NC(=O)[C@H](Cc1ccc(O)cc1)NC(=O)[C@H](CC(C)C)NC(=O)CNC(=O)[C@@H](N)Cc1c[nH]c2ccccc12` [H-Trp-Gly-Leu-Tyr-Arg-Ala-Gly-(N-propargyl)Gly-NH2], for which the ring closure, yield over several steps in series [1] worked out at 74%.
`CC1=NCC(=O)N[C@@H](Cc2c[nH]c3ccccc23)C(=O)N[C@@H](Cc2ccccc2)C(=O)N[C@@H](CC(=O)O)C(=O)N[C@@H](CC(=O)O)C(=O)N[C@@H](CC(C)C)C(=O)N[C@@H](Cc2ccc(O)cc2)C(=O)N[C@@H](Cc2c[nH]c3ccccc23)C(=O)N[C@@H](Cc2ccccc2)C(=O)N[C@@H](C(C)C)C(=O)N[C@@H](C)C(=O)N[C@@H](Cc2ccc(O)cc2)C(=O)N(CC(=O)N[C@@H](C)C(=O)N[C@@H](CSC2CC(=O)N(c3ccc4c(c3)C(=O)OC43c4ccc(O)cc4Oc4cc(O)ccc43)C2=O)C(N)=O)C1` (stereo partly drawn) [Peptide 10]: in the series on HeLa cells, the “cellular uptake (fluorescence in cells)” value is listed as “significant fluorescence”.
